“And” between values parts separate entries of the source, which are not always exact repeats. Equal entries are not always repeated. Where two headings read alike, the source gives them in different places.
Legend:
[1] = tested on: M. tuberculosis Erdman; format: in vivo, Mycobacterium tuberculosis; settings: BALB/c, 4 weeks of treatment
[2] = tested on: M. tuberculosis Erdman; format: in vivo, Mycobacterium tuberculosis
[3] = BALB/c; for AUC168h: single 25 mg/kg oral dose of BDQ; for AUC8h: single 150 mg/kg oral dose of PZA
[4] = C3HeB/FeJ; for AUC168h: single 25 mg/kg oral dose of BDQ; for AUC8h: single 150 mg/kg oral dose of PZA
[5] = in vivo; settings: BALB/c, mouse, po; for half-life: t1/2, BALB/c
[6] = in vivo; settings: C3HeB/FeJ, mouse, po; for half-life: t1/2, C3HeB/FeJ
[7] = in vivo; settings: BALB/c and C3HeB/FeJ, mouse
[8] = tested on: THP-1 cells; settings: 30 min exposure, 1 mM PZA, 0.4 mM POA
[9] = C3HeB/FeJ less-responsive subpopulation, BDQ 10 mg/kg
[10] = 25 mg/kg, AUCUL/AUCplasma, uninvolved lung, single 25 mg/kg oral dose of BDQ
[11] = 25 mg/kg, AUCWL/AUCplasma, whole lung, single 25 mg/kg oral dose of BDQ
[12] = 25 mg/kg, uninvolved lung, single 25 mg/kg oral dose of BDQ
[13] = 25 mg/kg, whole lung, single 25 mg/kg oral dose of BDQ
[14] = 25 mg/kg, lesion (type III), single 25 mg/kg oral dose of BDQ
[15] = 25 mg/kg, plasma, single 25 mg/kg oral dose of BDQ
[16] = 25 mg/kg, lesion (type I), single 25 mg/kg oral dose of BDQ
[17] = 150 mg/kg, AUCUL/AUCplasma, uninvolved lung, single 150 mg/kg oral dose of PZA
[18] = 150 mg/kg, AUCWL/AUCplasma, whole lung, single 150 mg/kg oral dose of PZA
[19] = 150 mg/kg, plasma, single 150 mg/kg oral dose of PZA
[20] = 150 mg/kg, uninvolved lung, single 150 mg/kg oral dose of PZA
[21] = 150 mg/kg, whole lung, single 150 mg/kg oral dose of PZA
[22] = 150 mg/kg, lesion (type III), single 150 mg/kg oral dose of PZA
[23] = 150 mg/kg, plasma, single 150 mg/kg oral dose of PZA, 2.5–8 h terminal
[24] = 150 mg/kg, lesion (type I), single 150 mg/kg oral dose of PZA

**Q.** For `COc1nc2ccc(Br)cc2cc1[C@@H](c1ccccc1)[C@@](O)(CCN(C)C)c1cccc2ccccc12` [BDQ, bedaquiline], which “log10 CFU reduction in lungs” value ([1]; BDQ 10 mg/kg oral gavage) is on record?
**A.** 3.1 log10 CFU

**Q.** And the “log10 CFU reduction in lungs” value ([1]; BDQ 25 mg/kg oral gavage)?
**A.** 4.1 log10 CFU

**Q.** And the “activity against the less-responsive subpopulation” value [2, 9]?
**A.** only bacteriostatic

**Q.** What about the “rate of decrease in log10 CFU in the lungs between 4 and 8 weeks of treatment” value (shortened to “rate of decrease in log10 CFU”) [2, 9] of the same molecule?
**A.** 0.0129 log10 CFU/week

**Q.** And the “rate of decrease in log10 CFU” value ([2]; C3HeB/FeJ responsive subpopulation, BDQ 10 mg/kg)?
**A.** 0.4392 log10 CFU/week

**Q.** And the “rate of decrease in log10 CFU” value ([2]; C3HeB/FeJ responsive subpopulation, BDQ 25 mg/kg)?
**A.** 0.3606 log10 CFU/week

**Q.** And the AUC168h ([3]; lesion (type III), 25 mg/kg)?
**A.** 949 µg·h/g and 949.6 µg·h/g

**Q.** What about the AUC168h ([3]; uninvolved lung) of the same molecule?
**A.** 956.6 µg·h/g

**Q.** What about the AUC168h ([3]; whole lung) of the same molecule?
**A.** 694.0 µg·h/g

**Q.** And the “concentration in dissected caseum of type I granulomas (LC/MS/MS)” value ([4]; 8 h following a single 25 mg/kg dose of BDQ, preliminary)?
**A.** 974.5 ng/g

**Q.** What about the AUC168h ([4]; lesion (type I)) of the same molecule?
**A.** 387.1 µg·h/g

**Q.** And the AUC168h ([4]; uninvolved lung)?
**A.** 653.9 µg·h/g

**Q.** And the AUC168h ([4]; whole lung)?
**A.** 739.42 µg·h/g

**Q.** And the AUC(0-t) ([5]; 25 mg/kg)?
**A.** 33700 ng·h/mL

**Q.** What about the Kp ([5]; 25 mg/kg, AUCLes/AUCplasma, lesion (type III), single 25 mg/kg oral dose of BDQ) of the same molecule?
**A.** 28.2

**Q.** What about the Kp [5, 10] of the same molecule?
**A.** 28.4

**Q.** And the Kp [5, 11]?
**A.** 20.6

**Q.** And the Cmax ([5]; 25 mg/kg, lesion (cellular non-necrotizing, type III), single 25 mg/kg oral dose of BDQ)?
**A.** 31700 ng/g

**Q.** What about the Cmax [5, 12] of the same molecule?
**A.** 36000 ng/g

**Q.** And the Cmax [5, 13]?
**A.** 22100 ng/g

**Q.** And the half-life [5, 14]?
**A.** 85.5 h

**Q.** What about the half-life [5, 12] of the same molecule?
**A.** 67.4 h

**Q.** What about the half-life [5, 13] of the same molecule?
**A.** 74.5 h

**Q.** What about the Tmax [5, 14] of the same molecule?
**A.** 8 h

**Q.** What about the Tmax [5, 13] of the same molecule?
**A.** 8 h

**Q.** What about the AUC(0-t) ([6]; 25 mg/kg) of the same molecule?
**A.** 35900 ng·h/mL

**Q.** And the Kp ([6]; 25 mg/kg, AUCLes/AUCplasma, lesion (type I), single 25 mg/kg oral dose of BDQ)?
**A.** 10.8

**Q.** What about the Kp [6, 10] of the same molecule?
**A.** 18.2

**Q.** And the Kp [6, 11]?
**A.** 20.6

**Q.** What about the Cmax ([6]; 25 mg/kg, lesion (caseous necrotic granuloma, type I), single 25 mg/kg oral dose of BDQ) of the same molecule?
**A.** 10100 ng/g

**Q.** What about the Cmax [6, 15] of the same molecule?
**A.** 2720 ng/mL

**Q.** And the Cmax [6, 12]?
**A.** 23300 ng/g

**Q.** And the Cmax [6, 13]?
**A.** 22900 ng/g

**Q.** What about the half-life [6, 16] of the same molecule?
**A.** 104 h

**Q.** And the half-life [6, 12]?
**A.** 84.1 h

**Q.** What about the half-life [6, 13] of the same molecule?
**A.** 130 h

**Q.** And the Tmax [6, 16]?
**A.** 8 h

**Q.** What about the Tmax [6, 15] of the same molecule?
**A.** 4 h

**Q.** What about the Tmax [6, 12] of the same molecule?
**A.** 8 h

**Q.** What about the Tmax [6, 13] of the same molecule?
**A.** 8 h

**Q.** What about the Tmax ([7]; 25 mg/kg) of the same molecule?
**A.** 3 h

**Q.** With `O=C(O)c1cnccn1` [POA, pyrazinoic acid] as the molecule, how does the AUC8h ([3]; lesion (type III)) read?
**A.** 99.5 µg·h/g

**Q.** What about the AUC8h ([3]; uninvolved lung) of the same molecule?
**A.** 39.0 µg·h/g

**Q.** What about the AUC8h ([3]; whole lung) of the same molecule?
**A.** 53.7 µg·h/g

**Q.** And the AUC8h ([4]; lesion (type I))?
**A.** 75.1 µg·h/g

**Q.** What about the AUC8h ([4]; uninvolved lung) of the same molecule?
**A.** 30.4 µg·h/g

**Q.** And the AUC8h ([4]; whole lung)?
**A.** 43.9 µg·h/g

**Q.** And the “accumulation within THP-1 cells” value [8]?
**A.** accumulated to a very low degree

**Q.** And the AUC(0-t) ([5]; 150 mg/kg)?
**A.** 127000 ng·h/mL

**Q.** What about the Kp ([5]; 150 mg/kg, AUCLes/AUCplasma, lesion (type III), single 150 mg/kg oral dose of PZA) of the same molecule?
**A.** 0.78

**Q.** And the Kp [5, 17]?
**A.** 0.31

**Q.** And the Kp [5, 18]?
**A.** 0.42

**Q.** What about the Cmax ([5]; 150 mg/kg, lesion (cellular non-necrotizing, type III), single 150 mg/kg oral dose of PZA) of the same molecule?
**A.** 25000 ng/g

**Q.** And the Cmax [5, 19]?
**A.** 42500 ng/mL

**Q.** And the Cmax [5, 20]?
**A.** 10300 ng/g

**Q.** And the Cmax [5, 21]?
**A.** 14700 ng/g

**Q.** And the half-life [5, 22]?
**A.** 0.83 h

**Q.** What about the half-life [5, 23] of the same molecule?
**A.** 1.24 h

**Q.** And the half-life [5, 20]?
**A.** 0.24 h

**Q.** What about the half-life [5, 21] of the same molecule?
**A.** 0.24 h

**Q.** What about the Tmax [5, 22] of the same molecule?
**A.** 1 h

**Q.** And the Tmax [5, 19]?
**A.** 0.5 h

**Q.** What about the Tmax [5, 20] of the same molecule?
**A.** 0.5 h

**Q.** What about the Tmax [5, 21] of the same molecule?
**A.** 0.5 h

**Q.** And the AUC(0-t) ([6]; 150 mg/kg)?
**A.** 58700 ng·h/mL

**Q.** And the Kp ([6]; 150 mg/kg, AUCLes/AUCplasma, lesion (type I), single 150 mg/kg oral dose of PZA)?
**A.** 1.28

**Q.** And the Kp [6, 17]?
**A.** 0.52

**Q.** What about the Kp [6, 18] of the same molecule?
**A.** 0.75

**Q.** And the Cmax ([6]; 150 mg/kg, lesion (caseous necrotic granuloma, type I), single 150 mg/kg oral dose of PZA)?
**A.** 12500 ng/g

**Q.** What about the Cmax [6, 19] of the same molecule?
**A.** 14200 ng/mL

**Q.** And the Cmax [6, 20]?
**A.** 8300 ng/g

**Q.** What about the Cmax [6, 21] of the same molecule?
**A.** 9000 ng/g

**Q.** What about the half-life [6, 24] of the same molecule?
**A.** 12.1 h

**Q.** And the half-life [6, 23]?
**A.** 2.4 h

**Q.** What about the half-life [6, 20] of the same molecule?
**A.** 3.9 h

**Q.** And the half-life [6, 21]?
**A.** 5.13 h

**Q.** And the Tmax [6, 24]?
**A.** 1 h

**Q.** What about the Tmax [6, 19] of the same molecule?
**A.** 0.75 h

**Q.** And the Tmax [6, 20]?
**A.** 1 h

**Q.** What about the Tmax [6, 21] of the same molecule?
**A.** 1 h

**Q.** And the Tmax ([7]; 150 mg/kg)?
**A.** 0.5 to 1 h

— PMC4874602 (ACS Infectious Diseases, 2016)
